From patent US20230212138A1, “PHD INHIBITOR COMPOUNDS, COMPOSITIONS, AND THEIR USE” (Akebia Therapeutics, Inc., priority 2020, published 2023)

Columns and labels:
Type in all cases: biochemical
full-length human PHD1 = biological target: T1, full-length human PHD1 (Homo sapiens, UniProt Q96KS0); test: TR-FRET assay, PHD1 enzymatic IC50; settings: 15 nM PHD1, 1 μM 2-OG
T1 construct: expressed in a baculovirus expression system as the full-length protein; FLAG (N); purchased Active Motif 81064; host or cells: baculovirus expression system
Source text: (§1) In the presence of 2-oxoglutarate and O2, PHD enzyme hydroxylates proline 564 of biotin-tagged HIF-1α peptide resulting in generation of biotin-tagged HIF-1α-hydroxyproline, succinate and CO2. The resulting proximity of the donor fluorophore complex, monoclonal antibody anti-6His-Terbium (Tb)-cryptate Gold, bound to the His-tagged VHL protein, EloB, EloC complex (His-VBC) and the acceptor fluorophore, SA-D2 complex, bound to HIF-1α-hydroxyproline results in a fluorescence resonance energy transfer signal that can be detected and quantified
(§2) Time-resolved fluorescence resonance energy transfer (TR-FRET) assay was utilized to determine the enzymatic half maximal inhibitory concentration (IC50) value of PHD inhibitors against the full-length human prolyl-4-hydroxylase domain (PHD) enzymes, PHD1, PHD2, and PHD3. The TR-FRET assay was developed based on the specific binding of hydroxylated HIF-1α peptide with the complex formed by VHL, EloB and EloC (VBC), to generate a fluorescent signal. Terbium (Tb)-Donor (monoclonal antibody anti-6His-Tb-cryptate Gold) and D2-acceptor (streptavidin [SA]-D2) of TR-FRET are linked to the VBC complex and to HIF-1α peptide, respectively. The VBC complex binds specifically to the HIF-1α peptide when it is hydroxylated, allowing energy transfer from TR-FRET donor to acceptor (FIG. 1).
Recombinant human PHD1 protein (catalog #81064, Lot #24717001) was purchased from Active Motif (Carlsbad, Calif., USA). PHD1 was expressed in a baculovirus expression system as the full-length protein (NCBI accession number NP_542770.2) with an N-terminal FLAG tag (molecular weight 44.9 kDa). Purity (>90%) was assessed by SDS-PAGE.
(§3) PHD inhibitor compound was preincubated with PHD enzyme in a 10 μL reaction volume in white 384-well Optiplate microplates (catalog #6007290, Perkin Elmer, Waltham, Mass., USA). For this, 5 μL PHD inhibitor compound was serially diluted with dilution buffer (50 mM HEPES [4-(2-hydroxyethyl)-1-piperazineethanesulfonic acid] pH 7.5, 50 mM sodium chloride [NaCl], 0.01% Tween-20, 0.01% purified bovine serum albumin [BSA]) and mixed with 5 μL PHD enzyme mix prepared as a 4× concentrate in the dilution buffer containing PHD enzyme (60 nM PHD1, 20 nM PHD2, 140 nM PHD3), 40 μM ferrous ammonium sulfate (FAS), 4 mM sodium (Na) ascorbate. The plates were incubated for 30 minutes at room temperature without rotation.
(§4) Five microliters of the VBC/anti-6His-Tb-cryptate Gold mix prepared as a 4×concentrate in dilution buffer containing 20 nM His-VBC, 1.32 nM monoclonal antibody anti-6His-Tb-cryptate Gold was then added. This step was followed immediately by the addition of 5 μL of the HIF-1α C35 substrate mix prepared as a 4×concentrate in the dilution buffer containing 120 nM biotin-labeled HIF-1α C35, 132 nM SA-D2, 4 μM 2-oxoglutarate (2-OG) to reach a final reaction volume of 20 μL.
(§5) The final assay reaction contained 50 mM HEPES, pH 7.5, 50 mM NaCl, 1 μM 2-OG, 10 μM FAS, 1 mM Na ascorbate, 0.01% Tween-20, 0.01% purified BSA, 30 nM biotin-labeled HIF-1α C35, 5 nM His-VBC, 0.33 nM monoclonal antibody anti-6His-Tb-cryptate Gold, 33 nM SA-D2 and PHD enzyme (15 nM PHD1, 5 nM PHD2, or 35 nM PHD3) with the diluted compound.
(§6) For the measurement of the IC50 of PHD inhibitor compound, reactions were incubated for 10 minutes at room temperature and then read on a Perkin Elmer EnVision (Waltham, Mass., USA) at an excitation wavelength of 340 nm and at emission wavelengths of 615 nm and 665 nm. The data represent the quotient of the signal intensity at 665 nm and 615 nm, automatically calculated by Envision Manager software (Perkin Elmer, Waltham, Mass., USA). The IC50 values (mean, standard deviation, standard error of the mean, geometric mean and 95% confidence interval) were determined using a four-parameter curve-fit using GraphPad Prism 7.0 (GraphPad, La Jolla, Calif., USA) and represent the compound concentration plotted against the calculated ratio of 665 nm and 615 nm. […]

full-length human PHD2 = biological target: T2, full-length human PHD2 (Homo sapiens, UniProt Q9GZT9); test: TR-FRET assay, PHD2 enzymatic IC50; settings: 5 nM PHD2, 1 μM 2-OG
T2 construct: The PHD2 construct contained amino acids 1 to 426 of PHD2; His tag (N, cleaved yes); TEV protease cleavage site (N, cleaved yes); host or cells: Sf9 insect cells (baculovirus)
Source text: as §1, §2
The full-length human PHD2 enzyme was produced with a baculovirus infected insect cell (BIIC) expression system by Beryllium (Bedford, Mass., USA). The PHD2 construct contained amino acids 1 to 426 of PHD2 (UniProt Knowledgebase[UniProtKB]/Swiss-Prot accession number Q9GZT9.1), and a His tag and a Tobacco Etch Virus (TEV) protease cleavage site at the N-terminus. The construct was expressed in Sf9 insect cells, purified by Ni-NTA column and digested with TEV protease to remove the His tag.
as §3, §4, §5
For the measurement of the IC50 of PHD inhibitor compound, reactions were incubated for 10 minutes at room temperature and then read on a Perkin Elmer EnVision (Waltham, Mass., USA) at an excitation wavelength of 340 nm and at emission wavelengths of 615 nm and 665 nm. The data represent the quotient of the signal intensity at 665 nm and 615 nm, automatically calculated by Envision Manager software (Perkin Elmer, Waltham, Mass., USA). […]

full-length human PHD3 = biological target: T3, full-length human PHD3 (Homo sapiens, UniProt Q9H6Z9); test: TR-FRET assay, PHD3 enzymatic IC50; settings: 35 nM PHD3, 1 μM 2-OG
T3 construct: It was expressed in E. coli as the full-length protein; 6-His (N); purchased Active Motif 81033; host or cells: E. coli
Source text: as §1, §2
Recombinant human PHD3 protein (molecular weight 31.1 kDa) was purchased from Active Motif (Carlsbad, Calif., USA). It was expressed in E. coli as the full-length protein (NCBI accession number NP_071356.1) with an N-terminal 6-His tag (catalog #81033, Lot #24417001).
as §3, §4, §5, §6

T2 sequence (Q9GZT9 whole entry, the tested form may be a part): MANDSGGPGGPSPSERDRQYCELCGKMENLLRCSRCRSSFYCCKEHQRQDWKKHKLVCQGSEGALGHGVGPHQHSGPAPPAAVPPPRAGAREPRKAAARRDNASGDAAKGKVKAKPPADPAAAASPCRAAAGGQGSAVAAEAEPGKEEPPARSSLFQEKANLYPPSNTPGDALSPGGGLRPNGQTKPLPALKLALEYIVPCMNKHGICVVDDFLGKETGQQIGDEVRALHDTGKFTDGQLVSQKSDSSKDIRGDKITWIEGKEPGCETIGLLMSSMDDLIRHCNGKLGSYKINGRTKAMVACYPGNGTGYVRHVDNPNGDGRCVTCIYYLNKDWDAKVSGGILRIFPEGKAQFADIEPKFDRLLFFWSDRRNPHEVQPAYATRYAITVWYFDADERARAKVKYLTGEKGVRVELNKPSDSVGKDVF
T1 sequence (Q96KS0 whole entry): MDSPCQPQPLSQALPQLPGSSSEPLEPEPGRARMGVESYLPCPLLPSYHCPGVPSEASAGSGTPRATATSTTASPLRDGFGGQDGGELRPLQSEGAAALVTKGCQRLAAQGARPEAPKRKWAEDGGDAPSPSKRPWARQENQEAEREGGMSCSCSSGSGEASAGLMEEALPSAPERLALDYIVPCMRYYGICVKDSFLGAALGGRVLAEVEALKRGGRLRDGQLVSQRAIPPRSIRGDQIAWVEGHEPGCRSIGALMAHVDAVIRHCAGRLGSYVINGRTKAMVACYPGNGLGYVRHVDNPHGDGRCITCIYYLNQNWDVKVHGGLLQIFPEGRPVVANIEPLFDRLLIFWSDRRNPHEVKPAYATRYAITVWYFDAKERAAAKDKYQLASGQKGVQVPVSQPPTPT
T3 sequence (Q9H6Z9 whole entry): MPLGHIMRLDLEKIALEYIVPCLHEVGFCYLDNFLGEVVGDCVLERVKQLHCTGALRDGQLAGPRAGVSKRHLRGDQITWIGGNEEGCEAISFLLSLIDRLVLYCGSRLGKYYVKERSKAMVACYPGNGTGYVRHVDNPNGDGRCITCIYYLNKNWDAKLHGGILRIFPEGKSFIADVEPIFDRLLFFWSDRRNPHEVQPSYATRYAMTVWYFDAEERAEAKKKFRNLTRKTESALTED

`CC(=O)NS(=O)(=O)c1ccc(-n2ncc(-c3ccc(C#N)cc3)c2O)nc1` [Compound 29, N-((6-(4-(4-cyanophenyl)-5-hydroxy-1H-pyrazol-1-yl)pyridin-3-yl)sulfonyl)acetamide] gave an IC50 (full-length human PHD1) of less than 100 nM and an IC50 (full-length human PHD2) of less than 100 nM.

With `N#Cc1ccc(-c2cnn(-c3ccc(C4CC4)cn3)c2O)cc1` [Compound 16, 4-(1-(5-cyclopropylpyridin-2-yl)-5-hydroxy-1H-pyrazol-4-yl)benzonitrile] the IC50 (full-length human PHD1) was 100 to 1000 nM and the IC50 (full-length human PHD2) was no less than 10000 nM.

`CS(=O)(=O)c1ccc(-n2ncc(-c3ccc(F)cc3)c2O)nc1` [Compound 20, 4-(4-fluorophenyl)-1-(5-(methylsulfonyl)pyridin-2-yl)-1H-pyrazol-5-ol] gave an IC50 (full-length human PHD1) of less than 100 nM, an IC50 (full-length human PHD2) of less than 100 nM and an IC50 (full-length human PHD3) of no less than 10000 nM.

`CS(=O)(=O)c1ccc(-n2ncc(-c3ccc(Cl)cc3)c2O)nc1` [Compound 19, 4-(4-chlorophenyl)-1-(5-(methylsulfonyl)pyridin-2-yl)-1H-pyrazol-5-ol] showed an IC50 (full-length human PHD1) of less than 100 nM, an IC50 (full-length human PHD2) of less than 100 nM and an IC50 (full-length human PHD3) of 100 to 1000 nM.

Compound `N#Cc1ccc(-c2cnn(-c3ccc(Br)cn3)c2O)cc1` [Compound 21, 4-(1-(5-bromopyridin-2-yl)-5-hydroxy-1H-pyrazol-4-yl)benzonitrile] has an IC50 (full-length human PHD1) of 100 to 1000 nM and an IC50 (full-length human PHD2) of 100 to 1000 nM.

Compound `CS(=N)(=O)c1ccc(-n2ncc(-c3ccc(C#N)cc3)c2O)nc1` (stereo not shown) [Compound 26, 4-(5-hydroxy-1-(5-(S-methylsulfonimidoyl)pyridin-2-yl)-1H-pyrazol-4-yl)benzonitrile] has an IC50 (full-length human PHD1) of less than 100 nM and an IC50 (full-length human PHD2) of less than 100 nM.

`CC(=O)c1ccc(-n2ncc(-c3ccc(C#N)cc3)c2O)nc1` [Compound 1, 4-(1-(5-acetylpyridin-2-yl)-5-hydroxy-1H-pyrazol-4-yl)benzonitrile] showed an IC50 (full-length human PHD1) of less than 100 nM, an IC50 (full-length human PHD2) of less than 100 nM and an IC50 (full-length human PHD3) of less than 100 nM.

Work on `N#Cc1ccc(-c2cnn(-c3ccc(NC(=O)C4CC4)cn3)c2O)cc1` [Compound 22, N-(6-(4-(4-cyanophenyl)-5-hydroxy-1H-pyrazol-1-yl)pyridin-3-yl)-cyclopropanecarboxamide] yielded an IC50 (full-length human PHD1) of less than 100 nM, an IC50 (full-length human PHD2) of less than 100 nM and an IC50 (full-length human PHD3) of 100 to 1000 nM.

`N#Cc1ccc(-c2cnn(-c3ccc(-c4ccccn4)cn3)c2O)cc1` [Compound 13, 4-(1-([2,3′-bipyridin]-6′-yl)-5-hydroxy-1H-pyrazol-4-yl)benzonitrile] showed an IC50 (full-length human PHD1) of less than 100 nM and an IC50 (full-length human PHD2) of 100 to 1000 nM.

Compound `Cc1cc(C#N)ccc1-c1cnn(-c2ccc(S(C)(=O)=O)cn2)c1O` [Compound 6, 4-(5-hydroxy-1-(5-(methylsulfonyl)pyridin-2-yl)-1H-pyrazol-4-yl)-3-methylbenzonitrile] has an IC50 (full-length human PHD1) of less than 100 nM, an IC50 (full-length human PHD2) of less than 100 nM and an IC50 (full-length human PHD3) of less than 100 nM.

For `N#Cc1ccc(-c2cnn(-c3ccc(-c4nccs4)cn3)c2O)cc1` [Compound 12, 4-(5-hydroxy-1-(5-(thiazol-2-yl)pyridin-2-yl)-1H-pyrazol-4-yl)benzonitrile], the IC50 (full-length human PHD1) was less than 100 nM, the IC50 (full-length human PHD2) was less than 100 nM and the IC50 (full-length human PHD3) was less than 100 nM.

Work on `N#Cc1ccc(-c2cnn(-c3ccc(C(F)(F)F)cn3)c2O)cc1` [Compound 14, 4-(5-hydroxy-1-(5-(trifluoromethyl)pyridin-2-yl)-1H-pyrazol-4-yl)benzonitrile] yielded an IC50 (full-length human PHD1) of 100 to 1000 nM and an IC50 (full-length human PHD2) of 1000 to 10000 nM.

`CS(=O)(=O)c1ccc(-n2ncc(-c3ccc(Br)cc3)c2O)nc1` [Compound 9, 4-(4-bromophenyl)-1-(5-(methylsulfonyl)pyridin-2-yl)-1H-pyrazol-5-ol] was tested, and the IC50 (full-length human PHD1) was less than 100 nM, the IC50 (full-length human PHD2) was less than 100 nM and the IC50 (full-length human PHD3) was 100 to 1000 nM.

With `CS(=O)(=O)c1ccc(-n2ncc(-c3ccc(CC#N)cc3)c2O)nc1` [Compound 7, 2-(4-(5-hydroxy-1-(5-(methylsulfonyl)pyridin-2-yl)-1H-pyrazol-4-yl)phenyl)acetonitrile] the IC50 (full-length human PHD1) was less than 100 nM, the IC50 (full-length human PHD2) was less than 100 nM and the IC50 (full-length human PHD3) was less than 100 nM.

With `N#Cc1ccc(-c2cnn(-c3ccc(NC(=O)N4CCOCC4)cn3)c2O)cc1` [Compound 28, N-(6-(4-(4-cyanophenyl)-5-hydroxy-1H-pyrazol-1-yl)pyridin-3-yl)morpholine-4-carboxamide] the IC50 (full-length human PHD1) was no less than 10000 nM and the IC50 (full-length human PHD2) was no less than 10000 nM.

Compound `N#Cc1ccc(-c2cnn(-c3ccc(Cl)cn3)c2O)cc1` [Compound 18, 4-(1-(5-chloropyridin-2-yl)-5-hydroxy-1H-pyrazol-4-yl)benzonitrile] has an IC50 (full-length human PHD1) of 100 to 1000 nM and an IC50 (full-length human PHD2) of 100 to 1000 nM.

In the case of `CS(=O)(=O)NC(=O)c1ccc(-n2ncc(-c3ccc(C#N)cc3)c2O)nc1` [Compound 27, 6-(4-(4-cyanophenyl)-5-hydroxy-1H-pyrazol-1-yl)-N-(methylsulfonyl) nicotinamide], the IC50 (full-length human PHD1) is reported as less than 100 nM and the IC50 (full-length human PHD2) is reported as less than 100 nM.

`CP(C)(=O)c1ccc(-n2ncc(-c3ccc(C#N)cc3)c2O)nc1` [Compound 30, 4-(1-(5-(dimethylphosphoryl)pyridin-2-yl)-5-hydroxy-1H-pyrazol-4-yl)benzonitrile] showed an IC50 (full-length human PHD1) of less than 100 nM and an IC50 (full-length human PHD2) of less than 100 nM.

Work on `N#Cc1ccc(-c2cnn(-c3ccc(NC(=O)N4CCNCC4)cn3)c2O)cc1` [Compound 33, N-(6-(4-(4-cyanophenyl)-5-hydroxy-1H-pyrazol-1-yl)pyridin-3-yl)piperazine-1-carboxamide] yielded an IC50 (full-length human PHD1) of no less than 10000 nM and an IC50 (full-length human PHD2) of no less than 10000 nM.

`CS(=O)(=O)c1ccc(-n2ncc(-c3ccc(Cl)cn3)c2O)nc1` [Compound 31, 4-(5-chloropyridin-2-yl)-1-(5-(methylsulfonyl)pyridin-2-yl)-1H-pyrazol-5-ol] was tested, and the IC50 (full-length human PHD1) was 100 to 1000 nM and the IC50 (full-length human PHD2) was 100 to 1000 nM.

`CS(=O)(=O)c1ccc(-n2ncc(-c3cccc(C#N)c3)c2O)nc1` [Compound 5, 3-(5-hydroxy-1-(5-(methylsulfonyl)pyridin-2-yl)-1H-pyrazol-4-yl)benzonitrile] showed an IC50 (full-length human PHD1) of 100 to 1000 nM and an IC50 (full-length human PHD2) of less than 100 nM.

For `Cc1cc(C#N)ccc1-c1cnn(-c2ncc(S(C)(=O)=O)cc2Cl)c1O` [Compound 32, 4-(1-(3-chloro-5-(methylsulfonyl)pyridin-2-yl)-5-hydroxy-1H-pyrazol-4-yl)-3-methylbenzonitrile], the IC50 (full-length human PHD1) was no less than 10000 nM and the IC50 (full-length human PHD2) was no less than 10000 nM.
